Assay results published in ChEMBL document CHEMBL1201862, “PubChem BioAssay data set” (2004).
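96-well plates; 48 h exposure; 5 concentrations. Endpoints by linear interpolation between flanking doses. Not reached: highest tested concentration assigned. Here, GI50 denotes the concentration required for 50% inhibition of growth.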 Calls of active or inactive are those of the source. Cut-off read from the data, not from the text of the source: active = GI50 up to about 1.1 µM and inactive = higher.

Legend:
Assay in all cases: NCI-60 cell line screen, 48 h
[1] = test system: NCI-H23
[2] = test system: ACHN
[3] = test system: SK-MEL-28
[4] = test system: M14
[5] = test system: RXF 393
[6] = test system: OVCAR-4
[7] = test system: A498
[8] = test system: DU-145
[9] = test system: MCF7
[10] = test system: MDA-MB-231
[11] = test system: NCI/ADR-RES
[12] = test system: LOX IMVI
[13] = test system: A549
[14] = test system: NCI-H226
[15] = test system: HOP-62
[16] = test system: SF-295
[17] = test system: SR
[18] = test system: HT-29
[19] = test system: UACC-257
[20] = test system: UACC-62
[21] = test system: SK-MEL-2
[22] = test system: IGROV-1
[23] = test system: MDA-N
[24] = test system: CAKI-1
[25] = test system: OVCAR-3
[26] = test system: SN12C
[27] = test system: CCRF-CEM
[28] = test system: HCT-15
[29] = test system: PC-3
[30] = test system: KM12
[31] = test system: COLO 205
[32] = test system: HOP-92
[33] = test system: UO-31
[34] = test system: NCI-H460
[35] = test system: HL-60
[36] = test system: SNB-19
[37] = test system: MOLT-4
[38] = test system: RPMI-8226
[39] = test system: Malme-3M
[40] = test system: HCC 2998
[41] = test system: SK-MEL-5
[42] = test system: Hs-578T
[43] = test system: K562
[44] = test system: OVCAR-5
[45] = test system: T47D
[46] = test system: U-251
[47] = test system: TK-10
[48] = test system: MDA-MB-435
[49] = test system: OVCAR-8
[50] = test system: 786-0
[51] = test system: SF-268
[52] = test system: SF-539
[53] = test system: EKVX
[54] = test system: NCI-H522
[55] = test system: SK-OV-3
[56] = test system: HCT-116
[57] = test system: SW-620
[58] = test system: BT-549
[59] = test system: SNB-75

CCOC(=O)C1=C(C)N(Cc2ccccc2)C2(O)C=CC(=O)C3C(=O)N(c4ccccc4)C(=O)C132 (centres undefined)
GI50 [1]: 2.56 µM (inactive)
GI50 [2]: 1.63 µM (inactive)
GI50 [3]: 1.82 µM (inactive)
GI50 [4]: 1.81 µM (inactive)
GI50 [5]: 1.35 µM (inactive)
GI50 [6]: 1.98 µM (inactive)
GI50 [7]: 14.5 µM (inactive)
GI50 [8]: 2.15 µM (inactive)
GI50 [9]: 2.25 µM (inactive)
GI50 [10]: 3.96 µM (inactive)
GI50 [11]: 2.75 µM (inactive)
GI50 [12]: 1.36 µM (inactive)
GI50 [13]: 2.86 µM (inactive)
GI50 [14]: 2.45 µM (inactive)
GI50 [15]: 2.35 µM (inactive)
GI50 [16]: 3.58 µM (inactive)
GI50 [17]: 1.01 µM (active)
GI50 [18]: 1.7 µM (inactive)
GI50 [19]: 2.04 µM (inactive)
GI50 [20]: 1.71 µM (inactive)
GI50 [21]: 1.98 µM (inactive)
GI50 [22]: 2 µM (inactive)
GI50 [23]: 3.61 µM (inactive)
GI50 [24]: 1.53 µM (inactive)
GI50 [25]: 2.28 µM (inactive)
GI50 [26]: 2.56 µM (inactive)
GI50 [27]: 0.735 µM (active)
GI50 [28]: 1.79 µM
GI50 [29]: 1.92 µM (inactive)
GI50 [30]: 1.99 µM (inactive)
GI50 [31]: 1.51 µM (inactive)
GI50 [32]: 2.24 µM (inactive)
GI50 [33]: 1.89 µM (inactive)
GI50 [34]: 1.81 µM (inactive)
GI50 [35]: 1.99 µM (inactive)
GI50 [36]: 7.52 µM (inactive)
GI50 [37]: 2.11 µM (inactive)
GI50 [38]: 1.03 µM (active)
GI50 [39]: 2.81 µM (inactive)
GI50 [40]: 1.67 µM (inactive)
GI50 [41]: 3.57 µM (inactive)
GI50 [42]: 5.4 µM (inactive)
GI50 [43]: 3.66 µM (inactive)
GI50 [44]: 3.43 µM (inactive)
GI50 [45]: 2.42 µM (inactive)
GI50 [46]: 2.69 µM (inactive)
GI50 [47]: 3.44 µM (inactive)
GI50 [48]: 1.89 µM (inactive)
GI50 [49]: 1.23 µM (inactive)
GI50 [50]: 1.59 µM (inactive)
GI50 [51]: 2.54 µM (inactive)
GI50 [52]: 1.6 µM (inactive)
GI50 [53]: 10.3 µM (inactive)
GI50 [54]: 1.57 µM (inactive)
GI50 [55]: 6.75 µM (inactive)
GI50 [56]: 1.15 µM (inactive)

C/C=C1\NC(=O)[C@H](Cc2ccccc2)NC(=O)[C@@H](C(C)C)NC(=O)[C@@H]([C@@H](C)CC)NC(=O)[C@H](NC(=O)[C@H](NC(=O)[C@H](CCCN)NC(=O)[C@H]2CCCN2C(=O)[C@H](NC(=O)[C@@H](NC(=O)[C@@H](NC(=O)[C@H](NC(=O)CCCC(C)C)C(C)C)[C@@H](C)O)C(C)C)C(C)C)[C@@H](C)CC)[C@@H](C)OC(=O)[C@H](C(C)C)NC1=O
GI50 [1]: 4.2 µM (inactive)
GI50 [3]: 1.5 µM (inactive)
GI50 [4]: 1.38 µM (inactive)
GI50 [5]: 3.1 µM (inactive)
GI50 [6]: 0.863 µM (active)
GI50 [9]: 0.461 µM (active)
GI50 [11]: 3.04 µM (inactive)
GI50 [12]: 3.64 µM (inactive)
GI50 [57]: 0.344 µM (active)
GI50 [14]: 2.23 µM (inactive)
GI50 [15]: 1.76 µM (inactive)
GI50 [16]: 1.69 µM (inactive)
GI50 [17]: 14.4 µM (inactive)
GI50 [20]: 1.42 µM (inactive)
GI50 [21]: 2.31 µM (inactive)
GI50 [22]: 1.44 µM (inactive)
GI50 [58]: 3.44 µM (inactive)
GI50 [25]: 1.36 µM (inactive)
GI50 [26]: 2.64 µM (inactive)
GI50 [27]: 2.86 µM (inactive)
GI50 [33]: 2.1 µM (inactive)
GI50 [34]: 1.52 µM (inactive)
GI50 [35]: 39.4 µM (inactive)
GI50 [36]: 0.347 µM (active)
GI50 [37]: 12.1 µM (inactive)
GI50 [39]: 2 µM (inactive)
GI50 [41]: 0.456 µM (active)
GI50 [43]: 3.59 µM (inactive)
GI50 [44]: 1.63 µM (inactive)
GI50 [46]: 0.344 µM (active)
GI50 [47]: 1.85 µM (inactive)
GI50 [48]: 1.14 µM (inactive)
GI50 [49]: 4.63 µM (inactive)
GI50 [50]: 1.74 µM (inactive)
GI50 [51]: 1.42 µM (inactive)
GI50 [52]: 1.69 µM (inactive)
GI50 [53]: 0.265 µM (active)
GI50 [54]: 3.71 µM (inactive)

c1ccc2c3c([nH]c2c1)C1CCCN1CC3 (centres undefined)
GI50 [1]: > 10 µM (inactive)
GI50 [2]: > 10 µM (inactive)
GI50 [3]: > 10 µM (inactive)
GI50 [4]: > 10 µM (inactive)
GI50 [5]: > 10 µM (inactive)
GI50 [6]: > 10 µM (inactive)
GI50 [7]: > 10 µM (inactive)
GI50 [8]: > 10 µM (inactive)
GI50 [9]: > 10 µM (inactive)
GI50 [10]: > 10 µM (inactive)
GI50 [11]: > 10 µM (inactive)
GI50 [12]: > 10 µM (inactive)
GI50 [57]: > 10 µM (inactive)
GI50 [14]: > 10 µM (inactive)
GI50 [15]: > 10 µM (inactive)
GI50 [16]: > 10 µM (inactive)
GI50 [17]: > 10 µM (inactive)
GI50 [18]: > 10 µM (inactive)
GI50 [19]: > 10 µM (inactive)
GI50 [21]: > 10 µM (inactive)
GI50 [22]: > 10 µM (inactive)
GI50 [23]: > 10 µM (inactive)
GI50 [24]: > 10 µM (inactive)
GI50 [25]: > 10 µM (inactive)
GI50 [26]: > 10 µM (inactive)
GI50 [27]: > 10 µM (inactive)
GI50 [28]: > 10 µM
GI50 [29]: > 10 µM (inactive)
GI50 [59]: > 10 µM (inactive)
GI50 [30]: > 10 µM (inactive)
GI50 [31]: > 10 µM (inactive)
GI50 [32]: > 10 µM (inactive)
GI50 [33]: > 10 µM (inactive)
GI50 [34]: > 10 µM (inactive)
GI50 [35]: > 10 µM (inactive)
GI50 [36]: > 10 µM (inactive)
GI50 [37]: > 10 µM (inactive)
GI50 [38]: > 10 µM (inactive)
GI50 [39]: > 10 µM (inactive)
GI50 [40]: > 10 µM (inactive)
GI50 [41]: > 10 µM (inactive)
GI50 [42]: > 10 µM (inactive)
GI50 [43]: > 10 µM (inactive)
GI50 [44]: > 10 µM (inactive)
GI50 [45]: > 10 µM (inactive)
GI50 [46]: > 10 µM (inactive)
GI50 [47]: > 10 µM (inactive)
GI50 [48]: > 10 µM (inactive)
GI50 [49]: > 10 µM (inactive)
GI50 [50]: > 10 µM (inactive)
GI50 [51]: > 10 µM (inactive)
GI50 [52]: > 10 µM (inactive)
GI50 [53]: > 10 µM (inactive)
GI50 [54]: > 10 µM (inactive)
GI50 [55]: > 10 µM (inactive)
